# Columns and labels:
# Type in all cases: in vivo
# [1] = test system: Streptococcus pneumoniae serotype 19F; assay: Opsonophagocytosis assay of serum of immunized mice, serotype 19F; conditions: PCV13 plus QS-21 vs PCV13 plus VSA-1
# Protocol: (§1) BALB/c mice used in this study were purchased from the Jackson Laboratory and maintained within an environmentally controlled, pathogen-free animal facility at the University of Alabama at Birmingham (UAB). Each human dose of PCV13 (trade name Prevnar 13 by Pfizer) is available in 0.5 mL single-dose pre-filled syringes. Groups of female BALB/c mice (8-10 weeks of age, six per group) were immunized via the subcutaneous route (s.c.) with saline, PCV 13 (50 μL), PCV13 (50 μL) plus QS-21 (20 μg), or PCV13 (50 μL) plus VSA-1 (100 μg) on days 0, 14 and 28. Serum samples were collected prior to the first immunization and at 2 weeks following the last immunization. Equal volumes of the six sera in each group were pooled together to create serum pools for each group. The serum was obtained after centrifugation and stored at −20° C. until assayed. All studies were performed according to National Institutes of Health guidelines, and protocols were approved by the UAB Institutional Animal Care and Use Committee.
# (§2) Opsonophagocytosis assay for serotypes 3, 4, 6B, 9V, 14, 19A, and 19F was performed using a 4-fold multiplexed opsonization assay described in the literature. […] Opsonic indices were determined as the interpolated serum dilution that kills 50% of bacteria. […]
# [2] = test system: Streptococcus pneumoniae seven serotypes (3, 4, 6B, 9V, 14, 19A and 19F); assay: IgG subclass pneumococcal antibody ELISA, seven serotypes together (average, summary); conditions: adjuvant added to PCV13; BALB/c mice
# Protocol: Four groups of female BALB/c mice (6 per group) were immunized with normal saline, one tenth human dose of PCV13, PCV13+VSA-1, and PCV13-QS21 on days 0, 14 […]. QS21 is another saponin adjuvant. Blood samples were obtained on day 42. IgG subclass of pneumococcal antibodies in the pooled serum samples of each group were determined with pneumococcal antibody ELISA for seven serotypes (3, 4, 6B, 9V, 14, 19A and 19F) using enzyme-conjugated antibodies against mouse IgG1, IgG2a or IgG3.
# [3] = test system: Streptococcus pneumoniae serotypes 3, 4, 6B, 9V, 14, 19A, and 19F; assay: Opsonophagocytosis assay, several serotypes together; conditions: adjuvant added to PCV13 vs PCV13 alone, BALB/c mice
# Protocol: as §1, §2
# [4] = test system: Streptococcus pneumoniae serotype 14; assay: Opsonophagocytosis assay of serum of immunized mice, serotype 14; conditions: adjuvant added to PCV13 vs PCV13 alone; BALB/c mice
# Protocol: as §1, §2
# [5] = test system: Streptococcus pneumoniae serotype 9V; assay: Opsonophagocytosis assay of serum of immunized mice, serotype 9V; conditions: PCV13 plus QS-21 vs PCV13 plus VSA-1
# Protocol: as §1, §2
# [6] = test system: Streptococcus pneumoniae serotype 3; assay: Opsonophagocytosis assay of serum of immunized mice, serotype 3; conditions: PCV13 plus QS-21 vs PCV13 plus VSA-1
# Protocol: as §1, §2
substance,measurement,setting,value
QS-21,"opsonic titer, QS-21 superior to VSA-1, serotype 19F",[1],1.2 fold
same,"IgG1, IgG2a and IgG3 antibodies titers against seven selected serotypes",[2],boosted
same,increase of PCV13-induced opsonic titers,[3],1.9-4.9 fold
same,"increase of PCV13-induced opsonic titers, serotype 14",[4],14.9 fold
same,"opsonic titer, QS-21 superior to VSA-1, serotype 9V",[5],2.4 fold
same,"opsonic titer, QS-21 superior to VSA-1, serotype 3",[6],1.3 fold

# — patent publication US20260174839A1, “PN[…] OTHER VACCINES P[…] SAPONIN ADJUVANT” (priority 2022, published 2026)
